This assay has as its target T1, Apical membrane antigen 1 (Plasmodium falciparum, UniProt Q94661).
T1 sequence (Q94661 whole entry): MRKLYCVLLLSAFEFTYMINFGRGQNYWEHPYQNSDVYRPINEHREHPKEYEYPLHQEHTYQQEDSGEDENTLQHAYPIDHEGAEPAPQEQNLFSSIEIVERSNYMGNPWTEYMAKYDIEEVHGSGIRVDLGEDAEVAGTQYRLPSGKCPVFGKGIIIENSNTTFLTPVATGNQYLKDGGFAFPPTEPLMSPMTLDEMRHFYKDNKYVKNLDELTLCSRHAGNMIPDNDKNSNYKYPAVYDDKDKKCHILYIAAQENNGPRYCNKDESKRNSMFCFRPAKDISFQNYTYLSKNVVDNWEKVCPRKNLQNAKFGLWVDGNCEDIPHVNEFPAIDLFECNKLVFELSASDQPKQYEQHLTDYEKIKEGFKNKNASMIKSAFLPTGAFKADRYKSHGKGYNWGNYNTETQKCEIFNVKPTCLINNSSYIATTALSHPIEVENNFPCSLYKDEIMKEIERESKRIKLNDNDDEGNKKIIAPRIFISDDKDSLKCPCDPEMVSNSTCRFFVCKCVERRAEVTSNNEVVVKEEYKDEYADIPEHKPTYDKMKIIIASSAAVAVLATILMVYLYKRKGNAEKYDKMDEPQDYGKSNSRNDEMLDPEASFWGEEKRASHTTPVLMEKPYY
Nature of the assay: Displacement of 5-FAM-Ahx-ALPLFSKFGSRMH from Plasmodium falciparum AMA1 by fluorescence anisotropy assay.

The source of these data is ChEMBL document CHEMBL4138051, “Antimalarial drug discovery targeting apical membrane antigen 1” (Medchemcomm, 2017).

Broadly, the IC50 is the concentration needed to halve the response being measured. Higher therefore signals weaker potency.

As for `COc1ccc(CN2CC(OCc3ccccc3F)CN(C(=O)CCc3c(C)nc4ncnn4c3C)CC2=O)cc1` (stereo unspecified), the IC50 worked out at 24 µM.
